Key:
human DP2 receptor = target: T1, human DP2 receptor (Homo sapiens, UniProt Q9Y5Y4); experiment: DP2/CRTH2 radioligand binding assay using [3H]PGD2; conditions: [3H]PGD2 binding, membranes of HEK293 cells expressing recombinant human DP2; read-out: hDP2
T1 construct: expressed in transfected cells
T1 sequence (Q9Y5Y4 1-395): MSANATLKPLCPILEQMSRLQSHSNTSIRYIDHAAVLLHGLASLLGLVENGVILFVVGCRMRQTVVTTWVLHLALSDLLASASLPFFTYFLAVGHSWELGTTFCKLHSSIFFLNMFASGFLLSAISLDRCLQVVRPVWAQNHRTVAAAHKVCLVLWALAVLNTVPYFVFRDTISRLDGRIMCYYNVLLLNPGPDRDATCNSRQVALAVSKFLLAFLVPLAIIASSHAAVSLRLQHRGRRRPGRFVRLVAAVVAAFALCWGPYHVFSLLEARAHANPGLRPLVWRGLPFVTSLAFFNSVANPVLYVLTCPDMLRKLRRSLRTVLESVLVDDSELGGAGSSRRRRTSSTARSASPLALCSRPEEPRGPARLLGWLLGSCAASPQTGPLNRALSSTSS
Protocol: The ability of a compound to bind to the human DP2 receptor is assessed via a radioligand binding assay using [^3H]PGD2. HEK293 cells stably expressing recombinant human DP2 are resuspended in 10 mM Hepes, 7.4 containing 1 mM DTT, lysed and centrifuged at 75,000×g to pellet the membranes. The membranes are resuspended in 10 mM Hepes, 7.4 containing 1 mM DTT and 10% glycerol to approximately 5 mg protein/ml. Membranes (2-10 μg protein/well) are incubated in 96-well plates with 1 nM [^3H]PGD2 and test compound in Assay Buffer (50 mM Hepes, 10 mM MnCl2, 1 mM EDTA, plus or minus 0.2% human serum albumin, pH 7.4) for 60 minutes at room temperature. The reactions are terminated by rapid filtration through Whatman GF/C glass fibre filter plates. The filter plates were pre-soaked in 0.33% polythylenimine for 30 minutes at room temperature then washed in Wash Buffer (50 mM Hepes, 0.5 M NaCl pH 7.4) prior to harvesting. After harvesting, the filter plates are washed 3 times with 1 ml cold Wash Buffer then dried. Scintillant is then added to the plates and the radioactivity retained on the filters is determined on a Packard TopCount (Perkin Elmer). Specific binding is determined as total radioactive binding minus non-specific binding in the presence of 10 μM PGD2. IC50s were determined using GraphPad prism analysis of drug titration curves.

human DP1 receptor = target: T2, human DP1 receptor (Homo sapiens, UniProt Q13258); experiment: DP1 radioligand membrane binding assay using [3H]BWA868C; conditions: [3H]BWA868C binding, human platelet membranes; read-out: hDP1
T2 construct: tissue Biological Specialty Corporation; host or cells: human platelets, membranes
T2 sequence (Q13258 1-359): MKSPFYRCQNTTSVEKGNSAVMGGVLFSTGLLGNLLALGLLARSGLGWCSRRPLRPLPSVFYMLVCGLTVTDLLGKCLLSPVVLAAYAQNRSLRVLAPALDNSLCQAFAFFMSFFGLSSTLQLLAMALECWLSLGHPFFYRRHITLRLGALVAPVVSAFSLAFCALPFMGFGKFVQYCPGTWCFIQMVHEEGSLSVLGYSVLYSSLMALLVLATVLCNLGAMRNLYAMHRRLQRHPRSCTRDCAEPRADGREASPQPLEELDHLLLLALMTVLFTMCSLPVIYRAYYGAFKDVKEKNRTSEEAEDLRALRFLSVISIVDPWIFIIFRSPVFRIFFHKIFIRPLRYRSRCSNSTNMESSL
Protocol: The ability of a compound to bind to the human DP1 receptor was evaluated via a radioligand membrane binding assay using the DP1 selective synthetic ligand [^3H]BWA868C. Packed human platelets (Biological Specialty Corporation), were resuspended in 6 volumes of Hepes/HBSS buffer (10 mM Hepes, 1 mM DTT in Hanks Balanced Salt Solution (HBSS)), lysed and centrifuged at 75,000×g to pellet the membranes. Membranes were resuspended in Hepes/HBSS buffer to approximately 12 mg protein/ml. Membranes (20 μg protein/well) are incubated in 96-well plates with 2 nM [^3H]BWA868C and test compound in Assay Buffer (50 mM Hepes, 10 mM MnCl2, 1 mM EDTA, plus or minus 0.2% human serum albumin, pH 7.4) for 60 minutes at room temperature. The reactions are terminated by rapid filtration through Whatman GF/C glass fibre filter plates. The filter plates were pre-soaked in […] polethylenimine for 30 minutes at room temperature then washed in Wash Buffer (50 mM Hepes, 0.5 M NaCl pH 7.4) prior to harvesting. After harvesting, the filter plates are washed 3 times with 1 ml cold Wash Buffer then dried. Scintillant is then added to the plates and the radioactivity retained on the filters is determined on a Packard TopCount (Perkin Elmer). Specific binding is determined as total radioactive binding minus non-specific binding in the presence of 10 μM BWA868C. IC50s were determined using GraphPad prism analysis of drug titration curves.

[1] = target: T3, recombinant human CRTH2 receptor (Homo sapiens, UniProt Q9Y5Y4); experiment: GTPγS binding assay; assay type: biochemical; conditions: +HSA; CHO cell membranes, 80 nM PGD2; read-out: hDP2 GTPγS μM (+HSA)
T3 construct: expressed in transfected cells
T3 sequence (Q9Y5Y4 1-395): T1 sequence (Q9Y5Y4 1-395)
Protocol: The ability of a compound to inhibit binding of GTP to DP2 is assessed via a membrane GTPγS assay. CHO cells stably expressing the recombinant human CRTH2 receptor are resuspended in 10 mM Hepes, 7.4 containing 1 mM DTT, lysed and centrifuged at 75,000×g to pellet the membranes. The membranes are resuspended in 10 mM Hepes, 7.4 containing 1 mM DTT and 10% glycerol. […] The reactions are terminated by rapid filtration through Whatman GF/B glass fibre filter plates. The filter plates are washed 3 times with 1 ml cold Assay Buffer and dried. Scintillant is then added to the plates and the radioactivity retained on the filters is determined on a Packard TopCount (Perkin Elmer). Specific binding is determined as total radioactive binding minus non-specific binding in the absence of the ligand (80 nM PGD2). IC50s were determined using Graphpad prism analysis of drug titration curves.

SMILES	IC50 (human DP2 receptor)	IC50 (human DP1 receptor)	IC50 [1]
CCN(Cc1cc(C(F)(F)F)ccc1-c1cc(CC(=O)O)ccc1F)C(C)=O [Compound 1-10, {2′-[(Acetyl-ethyl-amino)-methyl]-6-fluoro-4′-trifluoromethyl-biphenyl-3-yl}-acetic acid]	< 300 nM	> 1000 nM	< 0.3 µM
CCN(Cc1cc(C(F)(F)F)ccc1-c1cc(CC(=O)O)ccc1OC)C(=O)OCc1ccccc1Cl [Compound 1-39, (2′-{[(2-Chloro-benzyloxycarbonyl)-ethyl-amino]-methyl}-6-methoxy-4′-trifluoromethyl-biphenyl-3-yl)-acetic acid]	< 300 nM	> 1000 nM	< 0.3 µM
COc1ccc(CC(=O)O)cc1-c1ccc(C(F)(F)F)cc1CN(C(C)=O)C1CCC1 [Compound 1-30, {2′-[(Acetyl-cyclobutyl-amino)-methyl]-6-methoxy-4′-trifluoromethyl-biphenyl-3-yl}-acetic acid]	< 300 nM	> 1000 nM	< 0.3 µM
CCN(Cc1cc(C(F)(F)F)ccc1-c1cc(CC(=O)O)ccc1OC)C(=O)C(F)(F)F [Compound 1-32, (2′-{[Ethyl-(2,2,2-trifluoro-acetyl)-amino]-methyl}-6-methoxy-4′-trifluoromethyl-biphenyl-3-yl)-acetic acid]	< 300 nM	> 1000 nM	< 0.3 µM
CCN(Cc1cc(C(F)(F)F)ccc1-c1cc(CC(=O)O)ccc1OC)C(=O)OCc1ccc(Cl)cc1 [Compound 1-42, (2′-{[(4-Chloro-benzyloxycarbonyl)-ethyl-amino]-methyl}-6-methoxy-4′-trifluoromethyl-biphenyl-3-yl)-acetic acid]	< 300 nM	> 1000 nM	< 0.3 µM
CCN(Cc1cc(C(F)(F)F)ccc1-c1cc(CC(=O)O)ccc1OC)C(C)=O [Compound 1-2, {2′-[(Acetyl-ethyl-amino)-methyl]-6-methoxy-4′-trifluoromethyl-biphenyl-3-yl}-acetic acid]	< 300 nM	> 1000 nM	< 0.3 µM
CCN(Cc1cc(C(F)(F)F)ccc1-c1cc(CC(=O)O)ccc1OC)C(=O)OCc1cccc(Cl)c1 [Compound 1-43, (2′-{[(3-Chloro-benzyloxycarbonyl)-ethyl-amino]-methyl}-6-methoxy-4′-trifluoromethyl-biphenyl-3-yl)-acetic acid]	< 300 nM	> 1000 nM	< 0.3 µM
COc1ccc(CC(=O)O)cc1-c1ccc(C(F)(F)F)cc1CN(C(=O)OCc1ccccc1)C1CCCC1 [Compound 1-35, {2′-[(Benzyloxycarbonyl-cyclopentyl-amino)-methyl]-6-methoxy-4′-trifluoromethyl-biphenyl-3-yl}-acetic acid]	< 300 nM	300 to 1000 nM	< 0.3 µM
CCN(Cc1cc(C(F)(F)F)ccc1-c1cc(CC(=O)O)ccc1OC)C(=O)C(C)(C)Oc1ccc(Cl)cc1 [Compound 1-118, [2′-({[2-(4-Chloro-phenoxy)-2-methyl-propionyl]-ethyl-amino}-methyl)-6-methoxy-4′-trifluoromethyl-biphenyl-3-yl]-acetic acid]	< 300 nM	> 1000 nM	< 0.3 µM
CCN(Cc1cc(C(F)(F)F)ccc1-c1cc(CC(=O)O)ccc1OC)C(=O)COCc1ccccc1 [Compound 1-92, (2′-{[(2-Benzyloxy-acetyl)-ethyl-amino]-methyl}-6-methoxy-4′-trifluoromethyl-biphenyl-3-yl)-acetic acid]	< 300 nM	> 1000 nM	< 0.3 µM
CCN(Cc1ccccc1)C(=O)N(CC)Cc1cc(C(F)(F)F)ccc1-c1cc(CC(=O)O)ccc1OC [Compound 1-94, [2′-(3-Benzyl-1,3-diethyl-ureidomethyl)-6-methoxy-4′-trifluoromethyl-biphenyl-3-yl]-acetic acid]	< 300 nM	> 1000 nM	< 0.3 µM
COc1ccc(CC(=O)O)cc1-c1ccc(C(F)(F)F)cc1CN(C)C(=O)OCc1ccccc1 [Compound 1-27, {2′-[(Benzyloxycarbonyl-methyl-amino)-methyl]-6-methoxy-4′-trifluoromethyl-biphenyl-3-yl)-acetic acid]	< 300 nM	> 1000 nM	< 0.3 µM
CCN(Cc1cc(C(F)(F)F)ccc1-c1cc(CC(=O)O)ccc1OC)C(=O)COc1ccccc1 [Compound 1-48, (2′-{[Ethyl-(2-phenoxy-acetyl)-amino]-methyl}-6-methoxy-4′-trifluoromethyl-biphenyl-3-yl)-acetic acid]	< 300 nM	> 1000 nM	< 0.3 µM
CN(Cc1cc(C(F)(F)F)ccc1-c1cc(CC(=O)O)ccc1F)C(=O)OCc1ccccc1 [Compound 1-29, {2′-[(Benzyloxycarbonyl-methyl-amino)-methyl]-6-fluoro-4′-trifluoromethyl-biphenyl-3-yl}-acetic acid]	< 300 nM	> 1000 nM	< 0.3 µM
CCN(Cc1cc(C(F)(F)F)ccc1-c1cc(CC(=O)O)ccc1Cl)C(=O)OCc1ccccc1 [Compound 1-110]	< 300 nM	> 1000 nM	< 0.3 µM
COc1ccc(CC(=O)O)cc1-c1ccc(C(F)(F)F)cc1CN(CC(F)(F)F)C(C)=O [Compound 1-4, (2′-{[Acetyl-(2,2,2-trifluoro-ethyl)-amino]-methyl}-6-methoxy-4′-trifluoromethyl-biphenyl-3-yl)-acetic acid]	< 300 nM	> 1000 nM	< 0.3 µM
CCN(Cc1cc(C(F)(F)F)ccc1-c1cc(CC(=O)O)ccc1OC)C(=O)OCc1cc(F)cc(F)c1 [Compound 1-40, (2′-{[(3,5-Difluoro-benzyloxycarbonyl)-ethyl-amino]-methyl}-6-methoxy-4′-trifluoromethyl-biphenyl-3-yl)-acetic acid]	< 300 nM	> 1000 nM	< 0.3 µM
CCN(Cc1cc(F)ccc1-c1cc(CC(=O)O)ccc1OC)C(=O)C1CC1 [Compound 1-186, {2′-[(Cyclopropanecarbonyl-ethyl-amino)-methyl]-4′-fluoro-6-methoxy-biphenyl-3-yl}-acetic acid]	< 300 nM	> 1000 nM	< 0.3 µM
